The experiment deals with MDA-MB-231 cells. The experiment is described as follows: Confocal laser scanning microscopy of treated cells. The format is cell-based, human. Conditions: MDA-MB-231, 100 μM, 24 hours, α-tubulin / TOTO-3 staining. On the procedure: Immunofluorescence was used to examine the morphologic features of breast cancer cells treated with LFM and its analogs. Before the experiment, cells were trypsinized from rapidly growing tissue culture flasks and seeded onto sterile 22 mm^2 coverslips in 6-well culture plates. Cells on coverslips were returned to the incubator for 24 hours prior to treatment. The following day, drugs were added from a stock solution made in DMSO to a final concentration of 100 μM. Final DMSO concentration was 0.1% in both test samples and controls. Cells were returned to a 37° C. incubator for 24 hours before further processing.
At 24 hours, coverslips were fixed in −20° C. methanol for 15 minutes followed by a 15 minute incubation in phosphate buffered saline +0.1% Triton X-100(PBS-Tx). Coverslips were next incubated with a monoclonal antibody against α-tubulin (Sigma Chemical Co, St. Louis, Mo.) at a dilution of 1:1000 for 40 minutes in a humidified chamber at 37° C. Coverslips were washed for 15 minutes in PBS-Tx followed by a 40 min incubation with a goat anti-mouse IgG antibody conjugated to FITC (Amersham Corp., Arlington Heights, Ill.). The coverslips were again rinsed in PBS-Tx and incubated with 5 μM TOTO-3 (Molecular Probes, Eugene Oreg.) for 20 minutes to label the nuclear DNA. […]

Entries after “also recorded” stand apart in the source; their conditions may differ.

With `C/C(O)=C(\C#N)C(=O)Nc1ccc(OC(F)(F)F)cc1` [LFM-A12, α-Cyano-β-hydroxy-β-methyl-N-[4-(trifluoromethoxy)phenyl]-propenamide], the “morphology and microtubular organization of treated cells” value was “much smaller and had an abnormal shape with large cytoplasmic vacuoles; also recorded: marked shrinkage with disruption of microtubules”.

For the origin of these results see patent publication US6864286B2, “Inhibitors of the EGF-receptor tyrosine kinase and methods for their use” (Parker Hughes Institute, priority 1998, dated 2005).
